What was measured:
[1] = test system: Xenopus laevis embryos (stage 8 and stage 15); assay: Verification of microarray analysis by RT-PCR with biotinylated primers; type: in vivo; settings: for expression of genes of ESTs PBX0135A08 and PBX013409: microarray and RT-PCR in agreement
Description: Up-regulation of the clone Nos. PBX0135A08 and PBX0134E09 (underlined and shaded genes in Table 1, Panel A) were verified by RT-PCR of the genes. […] The DNA product obtained by RT-PCR using biotinylated primers of clone No. PBX0135A08 was separated by 1% agarose gel electophoresis and visualized by ethidium bromide staining (FIG. 3, Panel A). The DNA fragments were blotted to a nitrocellulose membrane and visualized by a streptavidin-horseradish peroxidase/ECL system (FIG. 3, Panel B). Though a single band for each reaction was visible in the ethidium bromide stained gel (FIG. 3, Panel A), multiple bands were obtained by the ECL system (FIG. 3, Panel B). When the biotin-labeled DNA in the gel was depurinated and denaturated by treatment with 0.25 M HCl followed by 1.5 M NaCl/0.56 N NaOH, the major 380 bp species were efficiently transferred and similar pattern to that observed using the ECL method was obtained (FIG. 3, Panel C). The effect was also observed with RT-PCR of clone No. PBX0134E09. mRNA levels of clones No. PBX0135A08 and No. PBX013409 increased after PMA treatment at stage 8 (Table 2).
In FIG. 3 the DNA products were obtained from 2 independent RT-PCR reactions using mRNA from untreated blastula stage 8 embryos (lanes 1 and 2), PMA-treated cleavage stage 8 embryos (lanes 3 and 4), untreated neurula stage 15 embryos (lanes 5 and 6), and PMA-treated neurula stage 15 embryos (lane 7 and 8). The 380 bp biotin-labeled DNA fragments were separated by gel electrophoresis on 1% agarose gel without further treatment (panel A and B) or following depurination and denaturation (panel C). In panel A, the DNA was detected by ultraviolet light following ethidium bromide staining. In panels B and C, the DNA was transferred to nitrocellulose membrane and detected by streptavidin-horseradish peroxidase ECL.

Xenopus laevis embryos = assay: Embryonic morphology after PMA treatment; type: in vivo
Protocol: Embryos were sorted for successful cleavage to 2 cells (1.5 hours after fertilization), split into groups for subsequent treatment (triplicate treatments per each experimental group) and visually monitored for normal embryonic morphology. Rates of abnormal morphology were recorded for each group. Embryos at stage 8 were obtained after incubation of the fertilized embryos at 23° C. for 5 hours. PMA (100 ng/ml) or DMSO (0.01%, solvent used to dissolve PMA) was added to the embryos 2 hours after fertilization. […] Embryos at stage 15 were obtained after incubation of the fertilized embryos at 18° C. for 30 hours (the condition produced stage 15 embryos identical to embryos obtained at 23° C. for 10 hours). PMA or DMSO was added to the embryos 21 hours after fertilization.

## CCCCCCCCCCCCCC(=O)O[C@@H]1[C@@H](C)[C@@]2(O)[C@@H](C=C(CO)C[C@]3(O)C(=O)C(C)=C[C@@H]23)[C@@H]2C(C)(C)[C@]12OC(C)=O [PMA, phorbol 12-myristate 12-acetate]
[1]; cleavage embryos, stage 8
  expression of genes of ESTs PBX0135A08 and PBX013409: highly up-regulated
[1]; embryos undergoing neurulation, stage 15
  expression of genes of ESTs PBX0135A08 and PBX013409: unaffected
[1]; gene PBX0135A08, Stage 8
  % increase of mRNA expression by RT-PCR: 260% of control
[1]; gene PBX0135A08, Stage 15
  % increase of mRNA expression by RT-PCR: no change
[1]; gene PBX013409, Stage 8, not detected in control but strong band after PMA treatment
  % increase of mRNA expression by RT-PCR: highly induced^b
[1]; gene PBX013409, Stage 15
  % increase of mRNA expression by RT-PCR: no change
Xenopus laevis embryos; 100 ng/ml added 2 hours after fertilization, 23° C. for 5 hours, untreated progressed to blastula
  embryo morphology / developmental stage reached: remained in a pre-blastula stage
Xenopus laevis embryos; added 21 hours after fertilization, 18° C. for 30 hours, untreated showed typical neurula
  embryo morphology / developmental stage reached: in a pre-neurula stage

Source: US20080145858A1, “DETECTION AND IDENTIFICATION OF TOXICANTS BY MEASUREMENT OF GENE […]” (priority 2003, published 2008)
